Reference: patent publication KR20210056931A, “피리메타민을 유효성분으로 포함하는 면역 관련 질환의 치료 또는 예방용 약학 조성물” (priority 2019, dated 2021)

Experiments:
[1] = system: rheumatoid arthritis model, DBA-1J Mice [류마티스 관절염 모델]; assay: Histopathological examination in rheumatoid arthritis animal model, Experiment 5; format: in vivo, mouse; settings: Day 14
[2] = system: TNF-α; assay: TNF-α expression inhibition in Raw264.7, comparison with tofacitinib, Experiment 2-2; format: cell-based; settings: for TNF-α expression: 6 h pretreatment, LPS 10 ng/mL 16 h
[3] = system: NF-ĸB(p65); assay: NF-kB activity (p65 nuclear translocation) in Raw264.7, Experiment 4; format: cell-based; settings: 50 ng/ml, 2 h pretreatment; LPS 100 ng/ml 2 h; Fig. 7
[4] = system: TNF-α; assay: TNF-α expression inhibition in Raw264.7 by treatment time, Experiment 1-2; format: cell-based; settings: LPS 100 ng/ml
[5] = system: TNF-α; assay: TNF-α expression inhibition in Raw264.7, comparison with DMARDs, Experiment 2-1; format: cell-based; settings: for TNF-α expression: 6 h pretreatment, LPS 10 ng/mL, MTX 344 nM, HCQ 610 nM, PYR 50 ng/mL, CsA 391 ng/mL, AZA 25 ng/mL, SFZ 750 ng/mL
[6] = system: rheumatoid arthritis model, DBA-1J Mice [류마티스 관절염 모델]; assay: Arthritis score in rheumatoid arthritis animal model, Experiment 5; format: in vivo, mouse
[7] = system: STAT3; assay: STAT3 activity (nuclear translocation) in Raw264.7, Experiment 3; format: cell-based; settings: 50 ng/ml, 2 h pretreatment; LPS 100 ng/ml 16 h; Fig. 6
[8] = Hematological examination, Experiment 6-4; format: in vivo, mouse; settings: for %BASO / %EOS / %LUC / %LYM / %MONO / %NEUT / %RETIC / HCT / HDW / HGB / MCH / MCV / MPV / PLT / RBC / RDW / WBC: Day 14
[9] = G3: MTX 2 mpk qd PO, G12: Py 15 mpk qd PO

CCc1nc(N)nc(N)c1-c1ccc(Cl)cc1 [피리메타민, Pyrimethamine]
Bone destruction ([1]; G4: Py 10 mg/kg/day PO): 0.9±0.9 | Cartilage damage ([1]; G4: Py 10 mg/kg/day PO): 1.3±1.0 | Histopathological examination, total ([1]; G4: Py 10 mg/kg/day PO): 3.6±2.7 | Synovium proliferation ([1]; G4: Py 10 mg/kg/day PO): 1.4±1.1 | Bone destruction ([1]; G5: Py 30 mg/kg/day PO): 0.4±0.8 | Cartilage damage ([1]; G5: Py 30 mg/kg/day PO): 0.3±0.5 | Histopathological examination, total ([1]; G5: Py 30 mg/kg/day PO): 1.1±1.5 | Synovium proliferation ([1]; G5: Py 30 mg/kg/day PO): 0.4±0.8 | Efficacy by histopathology compared with methotrexate (in words) ([1]; Py 10 and 30 mg/kg/day PO): 메토트렉세이트와 비교할 때에도 보다 우수한 효과 | Therapeutic efficacy by histopathology (in words) ([1]; Py 10 and 30 mg/kg/day PO): 농도 의존적으로 치료 효능을 보였으며 | TNF-α expression ([2]; PYR 50 ng/mL): 185.3 pg/mL | TNF-α expression ([2]; PYR 100 ng/mL): 53.3 pg/mL | TNF-α expression compared with tofacitinib ([2]; Raw264.7, LPS 10 ng/ml 16 h): 토파시티닙과 달리 TNF-α의 발현량을 직접적으로 억제 | NF-ĸB(p65) activity [3]: NF-ĸB(p65)의 활성이 현저히 저하 | TNF-α expression, concentration dependence ([4]; 2 or 50 ng/ml, 1 or 2 h): TNF-α의 발현량이 피리메타민의 농도 의존적으로 줄어드는 | TNF-α expression ([4]; PYR 2 ng/ml, 1hr): 916.0 pg/mL | TNF-α expression ([4]; PYR 2 ng/ml, 2hr): 1101.2 pg/mL | TNF-α expression ([4]; PYR 50 ng/ml, 1hr): 686.4 pg/mL | TNF-α expression ([4]; PYR 50 ng/ml, 2hr): 889.0 pg/mL | TNF-α expression ([5]; 2hr): 101.3 pg/mL | TNF-α expression ([5]; 24hr): 963.4 pg/mL | TNF-α expression inhibition compared with comparative examples ([5]; drug treatment 8 h or 24 h, pyrimethamine 50 ng/ml): 비교예들에 비해 TNF-α의 발현량을 월등히 억제하였고 | Arthritis score ([6]; Day 0, G4: Py 10 mg/kg/day PO): 2.3±1.6 Total score | Arthritis score ([6]; Day 0, G5: Py 30 mg/kg/day PO): 2.3±1.4 Total score | Arthritis score ([6]; Day 2, G4: Py 10 mg/kg/day PO): 4.0±1.6 Total score | Arthritis score ([6]; Day 2, G5: Py 30 mg/kg/day PO): 2.7±1.8 Total score | Arthritis score ([6]; Day 4, G4: Py 10 mg/kg/day PO): 4.6±1.8 Total score | Arthritis score ([6]; Day 4, G5: Py 30 mg/kg/day PO): 4.0±2.7 Total score | Arthritis score ([6]; Day 7, G4: Py 10 mg/kg/day PO): 5.4±2.4 Total score | Arthritis score ([6]; Day 7, G5: Py 30 mg/kg/day PO): 4.0±2.7 Total score | Arthritis score ([6]; Day 9, G4: Py 10 mg/kg/day PO): 6.1±2.5 Total score | Arthritis score ([6]; Day 9, G5: Py 30 mg/kg/day PO): 5.3±1.6 Total score | Arthritis score ([6]; Day 11, G4: Py 10 mg/kg/day PO): 6.7±2.1 Total score | Arthritis score ([6]; Day 11, G5: Py 30 mg/kg/day PO): 5.4±1.5 Total score | Arthritis score ([6]; Day 14, G4: Py 10 mg/kg/day PO): 7.3±2.1 Total score | Arthritis score ([6]; Day 14, G5: Py 30 mg/kg/day PO): 5.6±1.4 Total score | Arthritis score (in words) ([6]; pyrimethamine groups, 10 and 30 mg/kg/day PO): 관절염 지수가 현저하게 감소 | Arthritis score compared with methotrexate (in words) ([6]; pyrimethamine high dose (30 mg/kg/day) PO): 메토트렉세이트 투여군에 비해 관절염 지수가 현저하게 낮은 | STAT3 nuclear translocation [7]: LPS 16 시간 자극에 의한 STAT3의 핵이동을 억제함 | %BASO [8, 9]: 0.4±0.3% | %EOS [8, 9]: 1.5±0.4% | %LUC [8, 9]: 1.5±1% | %LYM [8, 9]: 40.4±4.1% | %MONO [8, 9]: 4.2±0.8% | %NEUT [8, 9]: 52±5.2% | %RETIC [8, 9]: 3.85±0.63% | HCT [8, 9]: 46±2.5% | HDW [8, 9]: 2.15 ± 0.13 g/dL | HGB [8, 9]: 12.6 ± 0.7 g/dL | MCH [8, 9]: 13.1 ± 0.4 pg | MCV [8, 9]: 47.8 ± 1.5 fL | MPV [8, 9]: 6.3 ± 0.1 fL | PLT [8, 9]: 1211±176 10^3 cell/μL | RBC [8, 9]: 9.63±0.75 10^6 cell/μL | RDW [8, 9]: 24.2±2.2% | WBC [8, 9]: 3.58±1.19 10^3 cell/μL | %BASO ([8]; G7: Py 1 mpk qd IP): 0.8±0.1% | %EOS ([8]; G7: Py 1 mpk qd IP): 1.2±0.2% | %LUC ([8]; G7: Py 1 mpk qd IP): 2.8±1.3% | %LYM ([8]; G7: Py 1 mpk qd IP): 49.2±3.5% | %MONO ([8]; G7: Py 1 mpk qd IP): 6.1±2.1% | %NEUT ([8]; G7: Py 1 mpk qd IP): 40±3.5% | %RETIC ([8]; G7: Py 1 mpk qd IP): 5.1±0.9% | HCT ([8]; G7: Py 1 mpk qd IP): 43.6±3.2% | HDW ([8]; G7: Py 1 mpk qd IP): 2.33 ± 0.15 g/dL | HGB ([8]; G7: Py 1 mpk qd IP): 11.9 ± 0.7 g/dL | MCH ([8]; G7: Py 1 mpk qd IP): 12.3 ± 0.2 pg | MCV ([8]; G7: Py 1 mpk qd IP): 45.1 ± 0.8 fL | MPV ([8]; G7: Py 1 mpk qd IP): 7.5 ± 0.6 fL | PLT ([8]; G7: Py 1 mpk qd IP): 403±182 10^3 cell/μL | RBC ([8]; G7: Py 1 mpk qd IP): 9.68±0.63 10^6 cell/μL | RDW ([8]; G7: Py 1 mpk qd IP): 22±2.8% | WBC ([8]; G7: Py 1 mpk qd IP): 5.4±2.01 10^3 cell/μL | %BASO ([8]; G8: Py 1 mpk qd PO): 0.6±0.2% | %EOS ([8]; G8: Py 1 mpk qd PO): 1.6±0.5% | %LUC ([8]; G8: Py 1 mpk qd PO): 2±0.8% | %LYM ([8]; G8: Py 1 mpk qd PO): 45±8.1% | %MONO ([8]; G8: Py 1 mpk qd PO): 4.7±1.2% | %NEUT ([8]; G8: Py 1 mpk qd PO): 46.3±9.0% | %RETIC ([8]; G8: Py 1 mpk qd PO): 6.74±3.63% | HCT ([8]; G8: Py 1 mpk qd PO): 44.8±2.5% | HDW ([8]; G8: Py 1 mpk qd PO): 2.31 ± 0.25 g/dL | HGB ([8]; G8: Py 1 mpk qd PO): 12.3 ± 0.6 g/dL | MCH ([8]; G8: Py 1 mpk qd PO): 12.6 ± 0.4 pg | MCV ([8]; G8: Py 1 mpk qd PO): 45.6 ± 0.9 fL | MPV ([8]; G8: Py 1 mpk qd PO): 6.3 ± 0.1 fL | PLT ([8]; G8: Py 1 mpk qd PO): 1380±72 10^3 cell/μL | RBC ([8]; G8: Py 1 mpk qd PO): 9.82±0.67 10^6 cell/μL | RDW ([8]; G8: Py 1 mpk qd PO): 21.5±3% | WBC ([8]; G8: Py 1 mpk qd PO): 2.67±0.58 10^3 cell/μL | Hematotoxicity (in words) ([8]; G7, intraperitoneal injection): 혈소판 수치가 감소하는 독성이 나타났다 | Hematotoxicity (in words) ([8]; oral groups G8-G12): 혈액 독성이 나타나지 않음
